This note sets out measurements from PMC11063903, “Engineering a human P2X2 receptor with altered ligand selectivity in yeast” (The Journal of Biological Chemistry, 2024).

In the experiment the test system is Crz1p nuclear localization (calcineurin pathway) in WT-P2X2 strain. Kind of experiment: GFP-Crz1p nuclear localization in P2X2 yeast after ATP injection. The experiment is classed as cell-based, S. cerevisiae. The settings on record: five minutes after ATP injection, 200 μM ATP (f.c.). An excerpt: As further validation of P2X2 function in yeast, we sought to investigate whether P2X2 could trigger the calcineurin pathway, which is a native pathway controlled by calcium. After intracellular calcium levels rise, calcineurin regulates the nuclear localization of transcription factor Crz1p ([27]). To test if unnatural ion channels could activate this pathway, a GFP-tagged Crz1p was co-expressed with P2X2 in yeast. […] The degree of nuclear localization was double that of a negative control mutant P2X receptor.
Yeast strains EG.y156 WT-P2X2 or EG.y66 broken-P2X2 were transformed with EG.B723 GFP-tagged Crz1p. Yeast were cultured and induced as previously described. Cells were loaded onto a cell imaging microplate (Eppendorf, cat. no. 0030741030) that was pre-treated with Poly-D-lysine (50 μg/ml). Cells (50 μl) were attached to the plate for 30 min at room temperature, and wells were then gently washed three times with media to remove non-adherent cells. Cells were resuspended in 100 μl and imaged on a Cytation 5 Cell Imaging Multi-Mode reader. Cells were imaged before injection with the appropriate substrate, immediately after injection, and 5 or 10 min after injection. […] Nuclear localization events were automatically counted in Ilastik (https://www.ilastik.org/). Percent nuclear localization was counted as nuclear localization events divided by total cells.

For `Nc1ncnc2c1ncn2[C@@H]1O[C@H](COP(=O)(O)OP(=O)(O)OP(=O)(O)O)[C@@H](O)[C@H]1O` [ATP], the “degree of Crz1p nuclear localization relative to negative control mutant P2X receptor” value was “double”.
